Data taken from patent US10239836B2, “Benzenecarbothioccyclopenta[c] pyrrole-1,3-dione compounds and process for synthesis thereof” (Council of Scientific & Industrial Research, priority 2014, dated 2019).
pIC50: −log10 of the molar value. Read-outs that look alike come from different tables or passages of the source.

Experiments:
[1] = system: LPS induced NO generation in RAW 264.7 cells; test: Inhibition of LPS induced NO generation (nitrite, Griess reagent); type: cell-based, Mouse; conditions: for pIC50: Mus musculus, read-out: NO inhibition (B) IC50; for Selectivity index (A/B): cytotoxicity IC50 / NO inhibition IC50, RAW 264.7 cells
Method: (§1) Mouse macrophage cell line RAW 264.7 was maintained in laboratory at 37° C. in
(§2) RPMI-1640 media supplemented with 10% heat-inactivated fetal bovine serum (FBS) and penicillin/streptomycin.
Nitrite, a stable oxidized product of NO, was measured in culture supernatant using Griess reagent (Sigma Aldrich) according to a previously reported method (2). After overnight seeding in 96-well plate (2×10^4 cells/well), RAW 264.7 cell was treated with lipopolysaccharide (LPS; Sigma) at a concentration of 1 μg/ml along with different doses of compounds (as determined from cytotoxicity assay) in serum-free culture for 24 h. Following treatment, media was collected and centrifuged at 2,000 rpm for 5 min to remove cellular debris. 50 μl of this media was then reacted with equal volume of Griess reagent for 15 min at room temperature in dark and absorbance was taken at 540 nm using Microplate reader (Biorad, USA). Nitrite concentrations were determined using standard solutions of sodium nitrite prepared in cell culture medium.

[2] = Cytotoxicity assay (MTT viability); type: cell-based, Mouse; conditions: mouse; RAW 264.7 cells, MTT, 24 h treatment, serum free
Method: as §1, §2
Viability of cultured cells was determined by (4,5-dimethylthiazol-2-yl)-2,5-diphenyltetrazolium bromide (MTT; Sigma) as described earlier (1). RAW 264.7 was seeded in triplicate at a density of 2×10^4 cells per well on a 96-well plate. […] MTT solution (0.5 mg/ml) was then added to each well and incubate for 4 h at 37° C. At the end of the incubation period, the medium was removed and the resulting purple formazan was solubilized with acidic isopropanol (0.1 N HCl in absolute isopropanol), and the absorbance was read at 570 nm using Biorad Microplate reader (Biorad, USA).

[3] = RAW264.7, RAW 264.7 cells, LPS 1 μg/ml, 24 h, serum-free

SMILES	melting point [°C]	pIC50 [1, 3]	Selectivity index (A/B) [1]	IC50 at 24 h [2] [µM]	pIC50 ([1]; RAW264.7, 24 h)
O=C1NC(=O)C2(SC(=O)c3ccc(F)cc3)CCC=C12 (stereo not drawn)	191 to 192				
O=C1NC(=O)C2=C1CCC2SC(=O)c1ccccc1 (stereo not drawn)	149 to 151				
O=C(S[C@@]12CC[C@@H](O)[C@@H]1C(=O)NC2=O)c1ccc(O)cc1 (racemic) [(±)-2, S-((3aS*,6R*,6aR*)-6-hydroxy-1,3-dioxohexahydrocyclopenta[c]pyrrol-3a(1H)-yl) 4-hydroxybenzothioate]		3.65	1.925	434	
CC(=O)OC1CCC2=C1C(=O)NC2=O (racemic) [Compound 5, 1,3-dioxo-1,2,3,4,5,6-hexahydrocyclopenta[c]pyrrol-4-yl acetate]		4.38	14.67	616	
O=C(S[C@@]12CC[C@@H](O)[C@@H]1C(=O)NC2=O)c1ccccc1O (relative stereo)	213 to 216				
CC(=O)S[C@]12CC[C@@H](O)[C@H]1C(=O)NC2=O (relative stereo) [Compound 7, S-((3aR*,6R*,6aS*)-6-Hydroxy-1,3-dioxohexahydrocyclopenta[c]pyrrol-3a(1H)-yl) ethanethioate]		3.83	3.7762	558	
CC(=O)S[C@@]12CC[C@@H](O)[C@@H]1C(=O)NC2=O (relative stereo) [Compound 8, S-((3aS*,6R*,6aR*)-6-Hydroxy-1,3-dioxohexahydrocyclopenta[c]pyrrol-3a(1H)-yl) ethanethioate]	120 to 129	3.08	1.029	857	
O=C(Cc1ccccc1)S[C@]12CC[C@@H](O)[C@H]1C(=O)NC2=O (relative stereo) [Compound 9, S-((3aR*,6R*,6aS*)-6-Hydroxy-1,3-dioxohexahydrocyclopenta[c]pyrrol-3a(1H)-yl) 2-phenylethanethioate]		3.88	6.322	834	
O=C(Cc1ccccc1)S[C@@]12CC[C@@H](O)[C@@H]1C(=O)NC2=O (relative stereo) [Compound 10, S-((3aS*,6R*,6aR*)-6-Hydroxy-1,3-dioxohexahydrocyclopenta[c]pyrrol-3a(1H)-yl) 2-phenylethanethioate]		3.85	5.418	774	
O=C(S[C@@]12CC[C@@H](O)[C@@H]1C(=O)NC2=O)c1ccc(F)cc1 (relative stereo) [Compound 11, S-((3aS*,6R*,6aR*)-6-Hydroxy-1,3-dioxohexahydrocyclopenta[c]pyrrol-3a(1H)-yl) 4-fluorobenzothioate]	184 to 186	3.50	1.49	474	
O=C(S[C@@]12CC[C@@H](O)[C@@H]1C(=O)NC2=O)c1cccs1 (relative stereo) [Compound 12, S-((3aS*,6R*,6aR*)-6-Hydroxy-1,3-dioxohexahydrocyclopenta[c]pyrrol-3a(1H)-yl) thiophene-2-carbothioate]		4.44	297.0519	10900	
O=C(S[C@@]12CC[C@H](O)[C@@H]1C(=O)NC2=O)c1ccccc1Cl (relative stereo) [Compound 13, S-((3aS*,6S*,6aR*)-6-Hydroxy-1,3-dioxohexahydrocyclopenta[c]pyrrol-3a(1H)-yl) 2-chlorobenzothioate]	173 to 174	3.90	5.245	668	
O=C(S[C@@]12CC[C@@H](O)[C@@H]1C(=O)NC2=O)c1ccccc1Cl (relative stereo) [Compound 14, S-((3aS*,6R*,6aR*)-6-Hydroxy-1,3-dioxohexahydrocyclopenta[c]pyrrol-3a(1H)-yl) 2-chlorobenzothioate]	154 to 158	3.75	4.022	717	
O=C(S[C@]12CC[C@@H](O)[C@H]1C(=O)NC2=O)c1ccccc1 (relative stereo) [Compound 15, S-((3aR*,6R*,6aS*)-6-Hydroxy-1,3-dioxohexahydrocyclopenta[c]pyrrol-3a(1H)-yl) benzothioate]	185 to 186	4.14	6.622	479	
O=C(S[C@@]12CC[C@@H](O)[C@@H]1C(=O)NC2=O)c1ccccc1 (relative stereo) [Compound 16, S-((3aS*,6R*,6aR*)-6-Hydroxy-1,3-dioxohexahydrocyclopenta[c]pyrrol-3a(1H)-yl) benzothioate]	180 to 182	4.19	261.7025	17100	
O=C(Cc1ccccc1)S[C@]12CCC[C@H]1C(=O)NC2=O (relative stereo) [Compound 19, S-((3aR*,6aS*)-1,3-Dioxohexahydrocyclopenta[c]pyrrol-3a(1H)-yl) 2-phenylethanethioate]		4.24	7.48	426	
O=C(SC1CC[C@]2(SC(=O)c3ccc(F)cc3)C(=O)NC(=O)[C@H]12)c1ccc(F)cc1 (relative stereo) [Compound 23, S,S′-((3aR*,6aR*)-1,3-Dioxohexahydrocyclopenta[c]pyrrole-3a,6(1H)-diyl) bis(4-fluorobenzothioate)]			2.142	211	4.01
CC(=O)SC1CC[C@]2(SC(C)=O)C(=O)NC(=O)[C@H]12 (relative stereo) [Compound 28, S,S′-((3aR*,6aR*)-1,3-Dioxohexahydrocyclopenta[c]pyrrole-3a,6(1H)-diyl) diethanethioate]			505.4343	10000	4.70
CC(=O)OC1CC[C@]2(SC(=O)Cc3ccccc3)C(=O)NC(=O)[C@H]12 (relative stereo) [Compound 32, (3aS*,6aR*)-1,3-Dioxo-6a-((2-phenylacetyl)thio) octahydrocyclopenta[c]pyrrol-4-yl acetate]			23.57	1610	4.17
CC(=O)OC1CC[C@]2(SC(=O)c3ccc(F)cc3)C(=O)NC(=O)[C@H]12 (relative stereo) [Compound 33, (3aS*,6aR*)-6a-((4-Fluorobenzoyl)thio)-1,3-dioxooctahydrocyclopenta[c]pyrrol-4-yl acetate]		4.46	353.8076	12100	
CC(=O)OC1CC[C@]2(SC(=O)c3ccccc3Cl)C(=O)NC(=O)[C@H]12 (relative stereo) [Compound 34, (3aS*,6aR*)-6a-((2-Chlorobenzoyl)thio)-1,3-dioxooctahydrocyclopenta[c]pyrrol-4-yl acetate]		3.99	89.51	9080	
CC(=O)OC1CC[C@]2(SC(=O)c3ccccc3)C(=O)NC(=O)[C@H]12 (relative stereo) [Compound 35, (3aS*,6aR*)-6a-(Benzoylthio)-1,3-dioxooctahydrocyclopenta[c]pyrrol-4-yl acetate]		4.19	29.74	1910	
O=C1NC(=O)C2=C1CCC2O (stereo in doubt) [(+)-4, (S)-4-Hydroxy-5,6-dihydrocyclopenta[c]pyrrole-1,3(2H,4H)-dione]		4.02	2.26	217	
O=C1NC(=O)C2=C1CCC2O (stereo in doubt) [(−)-4, (R)-4-Hydroxy-5,6-dihydrocyclopenta[c]pyrrole-1,3(2H,4H)-dione]		3.92	2.631	319	
O=C(S[C@@]12CC[C@H](O)[C@@H]1C(=O)NC2=O)c1ccc(O)cc1 [(+)-1, S-((3aS,6S,6aR)-6-hydroxy-1,3-dioxohexahydrocyclopenta[c]pyrrol-3a(1H)-yl) 4-hydroxybenzothioate]		4.14	14.14	1020	
O=C(S[C@]12CC[C@H](O)[C@H]1C(=O)NC2=O)c1ccc(O)cc1 [(−)-2, S-((3aR,6S,6aS)-6-hydroxy-1,3-dioxohexahydrocyclopenta[c]pyrrol-3a(1H)-yl) 4-hydroxybenzothioate]		3.85	9.85	1380	
O=C(S)c1ccc(O)cc1 [Compound 6, 4-hydroxybenzothioic S-acid]		3.90	22.99	2910	
